Reference: BindingDB's records for doi:10.1021/np100503q (The Ohio State University, 2010)

Molecular target: Transcription factor p65 (Human, UniProt Q04206)
Assay: Inhibition of NF-kappaB p65 isolated from nuclear extract of human HeLa cells assessed as blockade of binding to biotinylated consesus sequence by chemiluminescence assay

Transcription factor p65, sequence (Q04206 whole entry): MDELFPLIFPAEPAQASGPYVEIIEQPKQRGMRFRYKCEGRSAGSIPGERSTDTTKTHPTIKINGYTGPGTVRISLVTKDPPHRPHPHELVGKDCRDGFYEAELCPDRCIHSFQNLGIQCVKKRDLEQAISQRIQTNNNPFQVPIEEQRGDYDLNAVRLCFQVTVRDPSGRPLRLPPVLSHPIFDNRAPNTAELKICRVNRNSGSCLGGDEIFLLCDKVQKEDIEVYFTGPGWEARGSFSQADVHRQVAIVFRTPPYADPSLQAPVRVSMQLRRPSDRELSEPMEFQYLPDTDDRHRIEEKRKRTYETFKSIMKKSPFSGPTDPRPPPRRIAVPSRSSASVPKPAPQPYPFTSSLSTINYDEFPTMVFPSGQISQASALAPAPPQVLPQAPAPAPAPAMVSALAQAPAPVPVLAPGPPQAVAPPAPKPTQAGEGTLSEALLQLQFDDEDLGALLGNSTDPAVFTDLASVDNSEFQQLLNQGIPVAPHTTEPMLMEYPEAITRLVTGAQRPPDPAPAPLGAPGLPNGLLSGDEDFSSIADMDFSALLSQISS

## COC(=O)[C@H]1[C@@H](O)[C@@]2(O)c3c(OC)cc(O[C@@H]4O[C@@H]([C@H](O)CO)CO[C@@H]4OC)cc3O[C@@]2(c2ccc(OC)cc2)[C@@H]1c1ccccc1 [5'''-episilvestrol]
  IC50: > 20 µM
